Assay results published in patent US20140243401A1, “METHODS OF SCREENING COMPOUNDS THAT ARE CYTOTOXIC TO TUMOR CELLS AND METHODS OF TREATING TUMOR CELLS USING SUCH COMPOUND” (The Johns Hopkins University, priority 2010, published 2014).
“And” between values parts separate entries of the source, which are not always exact repeats. Equal values may be shown once. Read-outs that look alike come from different tables or passages of the source.

Experiments:
purified rat liver FAS = molecular target: T1, purified rat liver FAS (Rattus norvegicus, UniProt P12785); test: purified rat Type I FAS, spectrophotometric NADPH oxidation; format: biochemical
T1 construct: Highly purified rat FAS was obtained from starved and induced Sprague-Dawley rat livers; from tissue; host or cells: liver of starved and induced Sprague-Dawley rats
T1 sequence (P12785 whole entry): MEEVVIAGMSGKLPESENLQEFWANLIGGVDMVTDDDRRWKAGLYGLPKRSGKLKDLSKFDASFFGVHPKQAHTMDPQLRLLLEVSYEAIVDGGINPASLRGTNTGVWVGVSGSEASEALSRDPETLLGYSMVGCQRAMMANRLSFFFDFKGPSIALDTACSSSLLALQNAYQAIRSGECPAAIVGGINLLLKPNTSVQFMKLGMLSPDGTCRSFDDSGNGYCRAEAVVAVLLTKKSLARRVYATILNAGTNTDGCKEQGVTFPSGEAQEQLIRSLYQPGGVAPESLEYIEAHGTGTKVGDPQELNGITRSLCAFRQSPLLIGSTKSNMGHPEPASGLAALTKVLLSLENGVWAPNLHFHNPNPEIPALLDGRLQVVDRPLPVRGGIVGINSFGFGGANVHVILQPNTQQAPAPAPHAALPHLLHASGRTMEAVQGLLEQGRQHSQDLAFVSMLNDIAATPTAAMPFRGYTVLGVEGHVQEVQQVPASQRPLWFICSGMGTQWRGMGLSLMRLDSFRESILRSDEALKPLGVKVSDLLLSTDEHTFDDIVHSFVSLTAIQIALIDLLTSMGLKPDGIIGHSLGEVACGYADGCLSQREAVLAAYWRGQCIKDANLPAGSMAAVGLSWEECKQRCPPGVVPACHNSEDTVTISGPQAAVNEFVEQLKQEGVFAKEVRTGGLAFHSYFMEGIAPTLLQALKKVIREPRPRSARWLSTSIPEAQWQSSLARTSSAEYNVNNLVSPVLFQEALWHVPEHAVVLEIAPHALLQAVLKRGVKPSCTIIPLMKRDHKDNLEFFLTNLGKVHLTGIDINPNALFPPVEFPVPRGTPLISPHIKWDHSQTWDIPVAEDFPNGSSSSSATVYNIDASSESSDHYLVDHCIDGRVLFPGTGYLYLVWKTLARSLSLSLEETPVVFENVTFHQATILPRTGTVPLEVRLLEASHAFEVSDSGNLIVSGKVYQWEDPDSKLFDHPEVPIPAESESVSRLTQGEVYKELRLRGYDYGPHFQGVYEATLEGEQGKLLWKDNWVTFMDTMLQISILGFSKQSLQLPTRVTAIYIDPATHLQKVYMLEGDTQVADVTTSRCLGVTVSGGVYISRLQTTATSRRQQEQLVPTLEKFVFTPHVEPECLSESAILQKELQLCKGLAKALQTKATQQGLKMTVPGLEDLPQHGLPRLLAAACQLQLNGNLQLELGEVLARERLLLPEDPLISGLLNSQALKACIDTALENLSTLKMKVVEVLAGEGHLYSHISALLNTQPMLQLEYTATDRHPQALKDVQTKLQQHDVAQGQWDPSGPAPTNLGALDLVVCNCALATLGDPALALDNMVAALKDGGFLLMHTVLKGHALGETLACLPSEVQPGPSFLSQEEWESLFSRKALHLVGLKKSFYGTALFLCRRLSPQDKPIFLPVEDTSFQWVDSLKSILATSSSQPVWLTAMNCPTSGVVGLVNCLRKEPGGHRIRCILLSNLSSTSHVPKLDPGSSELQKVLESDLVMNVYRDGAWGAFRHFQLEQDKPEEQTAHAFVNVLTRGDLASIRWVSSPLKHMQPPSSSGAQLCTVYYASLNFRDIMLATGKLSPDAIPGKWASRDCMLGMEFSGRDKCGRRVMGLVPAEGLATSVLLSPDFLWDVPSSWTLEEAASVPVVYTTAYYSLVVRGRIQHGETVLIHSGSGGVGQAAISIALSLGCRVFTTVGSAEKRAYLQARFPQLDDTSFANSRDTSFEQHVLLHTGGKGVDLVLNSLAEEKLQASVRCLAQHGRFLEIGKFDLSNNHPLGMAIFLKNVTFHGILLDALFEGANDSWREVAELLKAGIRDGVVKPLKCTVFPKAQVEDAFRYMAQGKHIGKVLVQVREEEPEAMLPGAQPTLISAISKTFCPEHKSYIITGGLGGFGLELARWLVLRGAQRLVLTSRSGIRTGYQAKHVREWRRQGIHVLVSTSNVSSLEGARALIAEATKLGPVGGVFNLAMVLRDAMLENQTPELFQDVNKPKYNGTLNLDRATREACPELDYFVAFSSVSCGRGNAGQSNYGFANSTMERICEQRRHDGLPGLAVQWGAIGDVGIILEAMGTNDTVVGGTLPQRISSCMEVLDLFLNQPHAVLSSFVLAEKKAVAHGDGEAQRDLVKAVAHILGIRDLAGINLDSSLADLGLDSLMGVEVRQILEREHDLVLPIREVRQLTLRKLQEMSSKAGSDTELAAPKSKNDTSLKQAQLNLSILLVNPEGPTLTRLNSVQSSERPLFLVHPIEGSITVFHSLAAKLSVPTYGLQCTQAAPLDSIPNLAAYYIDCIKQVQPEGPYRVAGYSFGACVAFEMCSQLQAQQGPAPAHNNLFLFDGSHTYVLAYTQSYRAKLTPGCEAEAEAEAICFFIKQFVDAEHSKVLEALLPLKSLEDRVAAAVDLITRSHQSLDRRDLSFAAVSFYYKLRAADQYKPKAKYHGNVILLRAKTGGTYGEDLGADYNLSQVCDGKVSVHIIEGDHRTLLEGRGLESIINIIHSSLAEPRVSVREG
Protocol: Highly purified rat FAS was obtained from starved and induced Sprague-Dawley rat livers by slight modification of a published procedure.xx [Abraham, S.; Smith, S. Methods Enzymol. 1975, 35B, 65-73.]. Enzyme activity was assayed spectrophotometrically by measuring the decrease in extinction at 340 nm that accompanies the oxidation of NADPH during the overall reaction. The enzyme reaction mixture contained 100 mM KH2PO4 (pH 6.6), 1 mM EDTA, 1 mM dithiothreitol (DTT), 0.10 mM acetylCoA, 0.20 mM NADPH, ˜3 μg FAS and escalating concentrations of inhibitor to be tested were combined in a final volume of 1 mL and assayed at 37° C. for 5 min to monitor malonylCoA-independent oxidation of NADPH. FAS activity was then initiated by addition of 0.2 mM malonyl-CoA.

MCF7 cells = test: 14C-acetate incorporation into lipids in MCF7 cells; format: cell-based, human; conditions: for IC50: Homo sapiens, MCF7 cells
Protocol: MCF7 human breast cancer cells (a cell line which overexpresses FAS) were cultured in DMEM containing 5 mM glucose medium with 10% fetal calf serum, 0.01 mg/ml insulin and 1% penicillin/streptomycin. For measurement of fatty acid synthesis cells were cultured in 24-well plates at 5×10^4 per well and incubated overnight. Fatty acid synthesis was assayed by a 2 h pulse of [U^14C]acetate, 1 μCi/well, followed by Folch extraction and scintillation counting. Test compounds were added with the addition of drugs as described. Controls were treated with DMSO alone.
MCF7 human breast cancer cells were cultured in DMEM containing 1 mM or 5 mM glucose in the medium with 10% fetal calf serum, 0.01 mg/ml insulin and 1% penicillin/streptomycin. The cells were grown in two oxygen conditions, normoxia (21% 02) or hypoxia (1% 02). For measurement of fatty acid synthesis cells were cultured in 24-well plates at 5×10^4 per well and incubated overnight. Fatty acid synthesis was assayed by a 2 h pulse of [U^14C]acetate, 1 μCi/well, followed by Folch extraction and scintillation counting with the addition of drugs as described. Controls were treated with DMSO alone.

mitochondrial FAS = test: 14C-malonate incorporation into lipids of mitochondria isolated from MCF7 cells; format: biochemical, human; conditions: FIG. 2, vs vehicle
Protocol: Mammalian mitochondrial FAS activity may be determined in a variety of ways. For example, [14C]malonate may be added to isolated mitochondria, fatty acids are extracted, and then radioactivity is tested. (See Zhang et al., J. Bio. Chem. 278(41): 40067-40074, 2003; Mikolajczyk, J. and Brody, S., Eur. J. Biochem. 187: 431-437, 1990). The mitochondria are purified using methods known in the art. (See Qiagen's Qproteome Mitochondria Isolation Kit; Methods in Enzymology, Vol. 10, Chapter 11, 1967). To test the inhibition of mmFAS activity, a test compound is added to the reaction mixture. Therefore, a test compound may be screened according the methods described herein as follows: (i) isolating mitochondria; (ii) incubating mitochondria with [14C]malonate with and without a test compound; and (iii) determining the quantity of lipids and/or fatty acids produced. By comparing the amount of product in the presence of the test compound to the amount in its absence, the degree of inhibition can be determined.
Mitochondria from MCF7 cells were prepared following manufacturer's protocol (Mitochondria Isolation Kit, Sigma, Saint Louis, Mo.). Rat liver mitochondria were isolated by homogenization with a tissue homogenizer in H-medium (220 mM mannitol, 70 mM sucrose, 2 mM HEPES, and 0.5 g/L of fatty acid free bovine serum albumin, pH 7.4). […]

[1] = alamarBlue assay, primary human hepatocytes; format: cell-based; conditions: read-out: LC50 (the source's name)
[2] = test system: SKOV3 human ovarian cancer xenograft; test: tumor xenograft size, SKOV3; format: in vivo, Athymic Nude mice
Protocol: Xenograft studies were performed using various mmFAS inhibitors disclosed herein. Human cancer xenograft studies are known in the art. (See Pizer et al., Cancer Res. 56:1189-1193, 1996; Pizer et al., Cancer Res. 60: 213-218, 2000; Testa et al., Oncogene 24: 7455-7464, 2005).
In particular, C31 mouse efficacy studies were conducted in order to evaluate anti-neoplastic activity of C31 in vivo. Athymic Nude mice were implanted with HCT116 human colon, SKOV3 human ovarian or OVCAR3 human ovarian cancer cell lines and were treated when the grown tumor xenografts reached at least 150 to 200 mm^3.^1 ^1 Compounds were solubilized in TEP (80% polyethylene glycol (PEG) 400, 10% ethanol, 10% tween-80) in a volume of 50 μL.

Compound: CCCCCCCCC1(C)SC(=O)C=C1OCC(=O)Nc1ccc(Cl)cc1 (stereo not drawn) [Compound C31]
- IC50 (purified rat liver FAS): 42 µM
- IC50 (purified rat liver FAS; approximate): ~41 µM
- IC50 (MCF7 cells; first experiment, FIG. 1): 17 mg/L
- IC50 (MCF7 cells; second experiment): 13.6 µM
- inhibition of FAS activity (14C-acetate incorporation) (MCF7 cells; MCF7, 1 mM or 5 mM glucose, 21% or 1% O2, FIG. 14): increasingly effective at inhibiting FAS activity
- effect on 14C-malonate incorporation into lipids of isolated mitochondria (mitochondrial FAS): inhibited the incorporation of malonate into lipids in a dose-dependent manner
- CC50 [1]: 225 µg/mL and 562 µM
- Average Tumor Size Endpoint (% Change) ([2]; Study 11007, SKOV-3, oral b.i.d. 11 days, 50 mg/kg): −78 % Change
- Average Tumor Size Endpoint (% Change) ([2]; Study 52307, SKOV-3, oral b.i.d. 15 days, 50 mg/kg): −75 % Change
- Average Tumor Size Endpoint (% Change) ([2]; Study 121306, SKOV-3, IP b.i.d. 12 days, 10 mg/kg): +179 % Change
- Average Tumor Size Endpoint (% Change) ([2]; Study 121306, SKOV-3, IP b.i.d. 12 days, 50 mg/kg): −78 % Change
- Average Tumor Size Endpoint (% Change) ([2]; Study 121306, SKOV-3, IP b.i.d. 12 days, 100 mg/kg): −78 % Change
- Average Tumor Size Endpoint (% Change) ([2]; Study 3150772607, SKOV-3, IP b.i.d. 10 days, 25 mg/kg): −74 % Change
- Average Tumor Size Endpoint (% Change) ([2]; Study 3150772607, SKOV-3, IP b.i.d. 10 days, 50 mg/kg): −87 % Change
- Average Tumor Size Endpoint (% Change) ([2]; Study 3150772607, SKOV-3, IP b.i.d. 10 days, 150 mg/kg): −83 % Change
